A value given as a limit tells only on which side of the number the result lay.

Common to all, as to test: biochemical
One test concerns the target T1, Abl (Homo sapiens, UniProt P00519).
T1 construct: gene ABL1
Set-up: Kinase selectivity panel, IC50 of AC484 (Supplementary Table 1). The method, then: (§1) Wide-range phosphatase, kinase and preclinical safety pharmacology off-target activity screens were conducted at Eurofins (Extended Data Table 5 and Supplementary Tables 1 and 2). A small phosphatase panel was developed at AbbVie to assess IC50 values on select phosphatases. The following enzymes used in the phosphatase selectivity panel were purchased from Eurofins: PTPN1 (PTP1B; 14–621), PTPN2 (TC-PTP; 14–646), PTPN9 (14–592), SHP1 (14–591) and SHP2 (14–622). The catalytic activity of the phosphatase was monitored using the small-molecule substrate DiFMUP (ThermoFisher) in a fluorescence assay format. In brief, the phosphatase reactions were performed at room temperature in the following assay buffer: 50 mM HEPES, pH 7.2, 100 mM NaCl, 1 mM EDTA, 0.005% Tween-20 and 5 mM TCEP. Each phosphatase was incubated with increasing concentrations of AC484 for 5 min, after which the substrate DiFMUP was added and incubated at 25 °C for 30 min. The final concentration of the enzyme and substrate was maintained at 0.5 nM and 5 μM, respectively, in all the assays. The reaction was then quenched by the addition of a 100 μM solution of bpV(Phen) (Enzo Life Sciences). The fluorescence signal was monitored using an Envision microplate reader (Perkin-Elmer) using excitation and emission wavelengths of 340 nm and 450 nm, respectively. The dose–response curves for the inhibitors were analysed using normalized IC50 regression curve fitting with control-based normalization. Supplementary file 41586_2023_6575_MOESM3_ESM.xlsx: Supplementary Table 1 AC484 kinase selectivity screen.

In another test the target is BTK (Homo sapiens, UniProt Q06187). Set-up: Kinase selectivity panel, IC50 of AC484 (Supplementary Table 1). On the procedure:
as §1

The next test deals with T2, PKCdelta (Homo sapiens, UniProt Q05655).
T2 construct: gene PRKCD
More on the design: Kinase selectivity panel, IC50 of AC484 (Supplementary Table 1). On the procedure: as §1

The target in another test is T3, MT2 (ML1B) (Homo sapiens, UniProt P49286).
T3 construct: gene MTNR1B; ML1B
More on the design: Safety pharmacology off-target panel at Eurofins, radioligand binding with agonist or antagonist radioligand (Supplementary Table 2). Particulars: agonist radioligand.

A further test addresses T4, 5-HT2A (Homo sapiens, UniProt P28223).
T4 construct: gene HTR2A
Set-up: Safety pharmacology off-target panel at Eurofins, radioligand binding with agonist or antagonist radioligand (Supplementary Table 2). Particulars: antagonist radioligand.

A further test concerns the target T5, M1 (Homo sapiens, UniProt P11229).
T5 construct: gene CHRM1
More on the design: Safety pharmacology off-target panel at Eurofins, radioligand binding with agonist or antagonist radioligand (Supplementary Table 2). The conditions noted are these: antagonist radioligand.

A further test has as its target PPARg (Homo sapiens, UniProt P37231). More on the design: Safety pharmacology off-target panel at Eurofins, radioligand binding with agonist or antagonist radioligand (Supplementary Table 2). The conditions noted are these: agonist radioligand.
Another test deals with T6, EP2 (Homo sapiens, UniProt P43116).
T6 construct: gene PTGER2
Set-up: Safety pharmacology off-target panel at Eurofins, radioligand binding with agonist or antagonist radioligand (Supplementary Table 2). Particulars: agonist radioligand.

Another test deals with T7, AT2 (h) (Homo sapiens, UniProt P50052).
T7 construct: gene AGTR2
Set-up: Safety pharmacology off-target panel at Eurofins, radioligand binding with agonist or antagonist radioligand (Supplementary Table 2). The conditions noted are these: agonist radioligand.

The next test addresses T8, ETA (Homo sapiens, UniProt P25101).
T8 construct: gene EDNRA
Set-up: Safety pharmacology off-target panel at Eurofins, radioligand binding with agonist or antagonist radioligand (Supplementary Table 2). Particulars: agonist radioligand.

The next test concerns the target T9, V1a (Homo sapiens, UniProt P37288).
T9 construct: gene AVPR1A
More on the design: Safety pharmacology off-target panel at Eurofins, radioligand binding with agonist or antagonist radioligand (Supplementary Table 2). Particulars: agonist radioligand.

A further test has as its target T10, 5-HT7 (Homo sapiens, UniProt P34969).
T10 construct: gene HTR7
More on the design: Safety pharmacology off-target panel at Eurofins, radioligand binding with agonist or antagonist radioligand (Supplementary Table 2). The conditions noted are these: agonist radioligand.

For the next test, the target named is T11, GR (Homo sapiens, UniProt P04150).
T11 construct: gene NR3C1
More on the design: Safety pharmacology off-target panel at Eurofins, radioligand binding with agonist or antagonist radioligand (Supplementary Table 2). Particulars: agonist radioligand.

The target in another test is T12, A3 (h) (Homo sapiens, UniProt P0DMS8).
T12 construct: gene ADORA3
More on the design: Safety pharmacology off-target panel at Eurofins, radioligand binding with agonist or antagonist radioligand (Supplementary Table 2). The conditions noted are these: agonist radioligand.

T2 sequence (Q05655 whole entry): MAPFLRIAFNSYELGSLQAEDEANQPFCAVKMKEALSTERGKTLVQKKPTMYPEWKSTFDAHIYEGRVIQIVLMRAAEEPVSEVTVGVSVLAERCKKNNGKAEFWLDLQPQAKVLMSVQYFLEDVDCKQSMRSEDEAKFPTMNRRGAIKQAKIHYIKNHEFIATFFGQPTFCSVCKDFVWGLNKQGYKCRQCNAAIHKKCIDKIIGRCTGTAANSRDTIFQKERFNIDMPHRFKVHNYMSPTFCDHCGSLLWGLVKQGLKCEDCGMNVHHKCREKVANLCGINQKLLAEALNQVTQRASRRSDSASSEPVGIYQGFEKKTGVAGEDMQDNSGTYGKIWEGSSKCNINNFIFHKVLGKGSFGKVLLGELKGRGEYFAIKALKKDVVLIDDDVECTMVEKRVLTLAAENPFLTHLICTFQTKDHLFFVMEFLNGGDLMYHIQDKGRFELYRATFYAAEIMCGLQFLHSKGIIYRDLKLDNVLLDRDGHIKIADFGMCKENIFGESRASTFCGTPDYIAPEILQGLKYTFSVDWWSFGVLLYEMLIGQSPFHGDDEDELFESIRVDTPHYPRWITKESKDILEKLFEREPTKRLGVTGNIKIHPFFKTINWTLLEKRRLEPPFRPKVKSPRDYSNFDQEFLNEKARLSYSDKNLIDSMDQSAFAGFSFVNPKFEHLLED
T12 sequence (P0DMS8 whole entry): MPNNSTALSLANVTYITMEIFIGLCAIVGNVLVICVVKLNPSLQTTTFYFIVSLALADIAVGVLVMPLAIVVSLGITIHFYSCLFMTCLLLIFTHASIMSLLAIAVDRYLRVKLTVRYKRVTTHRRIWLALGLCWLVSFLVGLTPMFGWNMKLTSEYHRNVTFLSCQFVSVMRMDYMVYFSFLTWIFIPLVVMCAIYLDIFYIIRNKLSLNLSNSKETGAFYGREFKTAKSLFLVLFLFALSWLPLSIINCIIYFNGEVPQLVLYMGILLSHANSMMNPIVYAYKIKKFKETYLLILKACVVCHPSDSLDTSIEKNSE
T4 sequence (P28223 whole entry): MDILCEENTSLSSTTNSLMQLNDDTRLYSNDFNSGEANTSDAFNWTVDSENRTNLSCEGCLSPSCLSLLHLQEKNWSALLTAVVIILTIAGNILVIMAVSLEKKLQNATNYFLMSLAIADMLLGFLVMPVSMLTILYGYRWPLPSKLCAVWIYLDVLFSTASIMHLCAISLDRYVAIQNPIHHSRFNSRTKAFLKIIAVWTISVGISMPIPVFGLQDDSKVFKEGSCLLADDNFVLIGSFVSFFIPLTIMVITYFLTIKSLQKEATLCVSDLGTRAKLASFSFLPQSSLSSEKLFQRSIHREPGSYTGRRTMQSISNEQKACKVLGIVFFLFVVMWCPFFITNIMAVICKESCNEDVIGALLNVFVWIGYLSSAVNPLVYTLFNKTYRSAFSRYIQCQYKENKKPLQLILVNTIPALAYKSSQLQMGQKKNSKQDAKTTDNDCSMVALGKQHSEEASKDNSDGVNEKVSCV
Chain of BTK (Q06187 whole entry): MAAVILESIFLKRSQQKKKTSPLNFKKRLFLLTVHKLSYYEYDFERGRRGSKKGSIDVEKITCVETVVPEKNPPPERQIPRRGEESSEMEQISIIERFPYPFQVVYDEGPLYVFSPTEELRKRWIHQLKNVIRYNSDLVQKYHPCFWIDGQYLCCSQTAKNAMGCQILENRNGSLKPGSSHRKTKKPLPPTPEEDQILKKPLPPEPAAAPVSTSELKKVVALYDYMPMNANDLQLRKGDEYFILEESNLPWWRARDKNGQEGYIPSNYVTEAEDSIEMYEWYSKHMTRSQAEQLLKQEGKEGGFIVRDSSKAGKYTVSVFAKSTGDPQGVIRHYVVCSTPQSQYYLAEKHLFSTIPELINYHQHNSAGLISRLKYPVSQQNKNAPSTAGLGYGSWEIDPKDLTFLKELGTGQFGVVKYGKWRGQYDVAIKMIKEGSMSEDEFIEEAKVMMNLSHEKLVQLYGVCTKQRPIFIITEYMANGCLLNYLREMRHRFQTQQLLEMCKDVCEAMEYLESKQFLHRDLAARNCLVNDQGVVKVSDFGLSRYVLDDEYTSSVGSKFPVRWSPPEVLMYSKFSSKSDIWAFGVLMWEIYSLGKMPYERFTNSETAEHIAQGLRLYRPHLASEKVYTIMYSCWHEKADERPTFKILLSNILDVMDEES
T3 sequence (P49286 whole entry): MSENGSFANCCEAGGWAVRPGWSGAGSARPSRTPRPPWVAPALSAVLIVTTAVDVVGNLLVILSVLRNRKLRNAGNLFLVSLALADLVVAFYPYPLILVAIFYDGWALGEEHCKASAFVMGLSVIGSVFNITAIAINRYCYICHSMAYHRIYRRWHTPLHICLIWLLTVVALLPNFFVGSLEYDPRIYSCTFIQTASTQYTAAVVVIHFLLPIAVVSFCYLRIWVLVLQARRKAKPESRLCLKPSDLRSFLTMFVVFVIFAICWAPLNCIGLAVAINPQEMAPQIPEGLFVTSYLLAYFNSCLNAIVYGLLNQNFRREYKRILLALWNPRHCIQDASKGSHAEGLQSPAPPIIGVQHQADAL
T5 sequence (P11229 whole entry): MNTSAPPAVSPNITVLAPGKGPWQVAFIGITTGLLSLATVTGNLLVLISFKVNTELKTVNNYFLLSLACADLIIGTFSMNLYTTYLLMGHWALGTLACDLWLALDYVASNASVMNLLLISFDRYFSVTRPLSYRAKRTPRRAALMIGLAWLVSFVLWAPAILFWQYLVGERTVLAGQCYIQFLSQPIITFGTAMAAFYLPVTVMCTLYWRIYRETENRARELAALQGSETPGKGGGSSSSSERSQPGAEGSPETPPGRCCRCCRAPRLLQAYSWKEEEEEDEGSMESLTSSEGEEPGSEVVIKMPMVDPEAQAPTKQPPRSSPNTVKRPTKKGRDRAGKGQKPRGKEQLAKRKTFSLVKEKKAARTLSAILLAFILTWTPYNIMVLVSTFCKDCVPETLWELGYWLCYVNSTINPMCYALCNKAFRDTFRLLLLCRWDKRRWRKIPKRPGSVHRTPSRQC
T9 sequence (P37288 whole entry): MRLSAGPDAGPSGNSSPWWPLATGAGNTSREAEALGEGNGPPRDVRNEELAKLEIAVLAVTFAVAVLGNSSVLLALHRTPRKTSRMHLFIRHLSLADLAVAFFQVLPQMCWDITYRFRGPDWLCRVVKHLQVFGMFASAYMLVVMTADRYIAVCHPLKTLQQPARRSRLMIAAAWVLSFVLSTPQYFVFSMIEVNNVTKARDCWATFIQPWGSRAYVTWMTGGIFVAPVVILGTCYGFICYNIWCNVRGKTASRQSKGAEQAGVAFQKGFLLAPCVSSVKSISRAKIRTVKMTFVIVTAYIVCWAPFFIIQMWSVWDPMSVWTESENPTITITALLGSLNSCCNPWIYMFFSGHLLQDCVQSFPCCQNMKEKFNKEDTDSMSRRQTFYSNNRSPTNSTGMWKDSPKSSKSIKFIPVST
T8 sequence (P25101 whole entry): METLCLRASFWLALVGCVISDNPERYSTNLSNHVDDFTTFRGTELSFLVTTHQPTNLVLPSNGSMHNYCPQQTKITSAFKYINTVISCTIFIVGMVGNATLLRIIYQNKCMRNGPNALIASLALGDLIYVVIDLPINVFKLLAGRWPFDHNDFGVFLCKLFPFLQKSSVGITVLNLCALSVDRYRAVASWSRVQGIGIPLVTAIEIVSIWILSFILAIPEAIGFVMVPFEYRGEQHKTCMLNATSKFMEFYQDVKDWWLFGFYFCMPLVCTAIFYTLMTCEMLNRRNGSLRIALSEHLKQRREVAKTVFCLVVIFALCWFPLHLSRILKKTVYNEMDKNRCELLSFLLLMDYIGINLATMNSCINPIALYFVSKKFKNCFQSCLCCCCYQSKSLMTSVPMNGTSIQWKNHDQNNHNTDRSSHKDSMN
T10 sequence (P34969 whole entry): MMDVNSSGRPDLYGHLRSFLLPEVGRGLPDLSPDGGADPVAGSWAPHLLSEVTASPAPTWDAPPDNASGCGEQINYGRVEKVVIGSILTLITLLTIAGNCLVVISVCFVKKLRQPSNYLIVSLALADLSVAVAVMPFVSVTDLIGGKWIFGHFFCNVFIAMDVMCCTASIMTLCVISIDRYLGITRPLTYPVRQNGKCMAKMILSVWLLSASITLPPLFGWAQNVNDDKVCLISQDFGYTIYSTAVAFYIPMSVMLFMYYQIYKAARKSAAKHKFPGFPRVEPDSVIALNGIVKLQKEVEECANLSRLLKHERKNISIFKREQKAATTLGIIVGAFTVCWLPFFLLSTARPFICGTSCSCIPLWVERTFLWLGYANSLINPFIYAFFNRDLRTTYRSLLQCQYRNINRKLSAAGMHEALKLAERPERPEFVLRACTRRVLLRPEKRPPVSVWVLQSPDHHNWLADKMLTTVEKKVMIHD
Chain of PPARg (P37231 whole entry): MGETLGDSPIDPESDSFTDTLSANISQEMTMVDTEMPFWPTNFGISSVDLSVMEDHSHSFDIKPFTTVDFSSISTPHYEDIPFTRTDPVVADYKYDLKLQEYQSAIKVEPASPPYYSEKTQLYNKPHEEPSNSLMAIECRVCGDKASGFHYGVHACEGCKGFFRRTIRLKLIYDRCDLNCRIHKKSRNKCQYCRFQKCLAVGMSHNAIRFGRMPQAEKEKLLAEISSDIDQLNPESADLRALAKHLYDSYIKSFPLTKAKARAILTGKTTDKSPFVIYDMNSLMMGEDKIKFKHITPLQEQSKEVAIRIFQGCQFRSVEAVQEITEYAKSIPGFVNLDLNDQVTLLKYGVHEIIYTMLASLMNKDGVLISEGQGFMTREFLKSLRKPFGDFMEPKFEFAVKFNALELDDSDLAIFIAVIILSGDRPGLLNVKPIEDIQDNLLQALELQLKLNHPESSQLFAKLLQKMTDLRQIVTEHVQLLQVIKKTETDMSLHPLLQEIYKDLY

Take `CC(C)CCN[C@@H]1CCc2cc(O)c(N3CC(=O)NS3(=O)=O)c(F)c2C1` [AC484, ABBV-CLS-484]: the IC50 against Abl, at BTK and against PKCdelta was greater than 10 µM in each case. Also, the AC50 on MT2 (ML1B), at 5-HT2A, at M1, at PPARg, at EP2 and on AT2 (h) was greater than 0.01 mM throughout. In addition, the AC50 at ETA, at V1a, on 5-HT7, on GR and at A3 (h) was greater than 0.01 mM throughout.

Broadly, the IC50 is the midpoint of a concentration-inhibition curve. Lower therefore signals inhibition by little substance. By AC50 is commonly meant the concentration giving half of the maximal activity seen. Read a low AC50 as greater potency.
